Source: publication PMC8343220, “The selectivity of α‐adrenoceptor agonists for the human α1A, α1B, and α1D‐adrenoceptors” (Pharmacology Research & Perspectives, 2021)
Read-outs that look alike come from different tables or passages of the source.

Key:
[1] = target: T1, human α1A‐adrenoceptor (Homo sapiens, UniProt P35348); assay: Intracellular free calcium mobilization, CHO‐α1A cells; type: cell-based
T1 construct: expressed in transfected cells; host or cells: CHO-K1
T1 sequence (P35348 1-466): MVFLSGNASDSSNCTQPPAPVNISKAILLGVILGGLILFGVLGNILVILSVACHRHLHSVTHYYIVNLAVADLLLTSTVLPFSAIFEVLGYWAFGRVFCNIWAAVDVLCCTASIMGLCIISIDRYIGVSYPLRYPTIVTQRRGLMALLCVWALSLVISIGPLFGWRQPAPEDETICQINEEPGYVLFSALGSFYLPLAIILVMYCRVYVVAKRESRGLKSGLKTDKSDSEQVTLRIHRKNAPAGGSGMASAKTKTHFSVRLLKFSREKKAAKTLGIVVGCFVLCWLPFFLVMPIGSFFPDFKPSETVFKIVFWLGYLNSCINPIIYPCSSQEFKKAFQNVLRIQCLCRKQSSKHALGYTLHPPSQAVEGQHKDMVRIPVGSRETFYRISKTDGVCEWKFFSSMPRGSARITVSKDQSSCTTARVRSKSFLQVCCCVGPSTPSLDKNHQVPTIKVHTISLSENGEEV

[2] = target: T1, human α1A‐adrenoceptor; assay: ERK1/2‐phosphorylation (Surefire Alphascreen), CHO‐α1A cells; type: cell-based
[3] = target: T1, human α1A‐adrenoceptor; assay: ^3H‐cAMP accumulation in the presence of 10 μM forskolin, CHO‐α1A cells; type: cell-based; settings: CHO‐α1A cells; fold increase of the forskolin response
[4] = target: T1, human α1A‐adrenoceptor; assay: ^3H‐cAMP accumulation, CHO‐α1A cells; type: cell-based; settings: CHO‐α1A cells; % of 10 µM forskolin response
[5] = target: T2, human α1B‐adrenoceptor (Homo sapiens, UniProt P35368); assay: Intracellular free calcium mobilization, CHO‐α1B cells; type: cell-based; settings: CHO‐α1B cells; maximal response as % of 10 µM ionomycin response
T2 construct: expressed in transfected cells; host or cells: CHO-K1
T2 sequence (P35368 1-520): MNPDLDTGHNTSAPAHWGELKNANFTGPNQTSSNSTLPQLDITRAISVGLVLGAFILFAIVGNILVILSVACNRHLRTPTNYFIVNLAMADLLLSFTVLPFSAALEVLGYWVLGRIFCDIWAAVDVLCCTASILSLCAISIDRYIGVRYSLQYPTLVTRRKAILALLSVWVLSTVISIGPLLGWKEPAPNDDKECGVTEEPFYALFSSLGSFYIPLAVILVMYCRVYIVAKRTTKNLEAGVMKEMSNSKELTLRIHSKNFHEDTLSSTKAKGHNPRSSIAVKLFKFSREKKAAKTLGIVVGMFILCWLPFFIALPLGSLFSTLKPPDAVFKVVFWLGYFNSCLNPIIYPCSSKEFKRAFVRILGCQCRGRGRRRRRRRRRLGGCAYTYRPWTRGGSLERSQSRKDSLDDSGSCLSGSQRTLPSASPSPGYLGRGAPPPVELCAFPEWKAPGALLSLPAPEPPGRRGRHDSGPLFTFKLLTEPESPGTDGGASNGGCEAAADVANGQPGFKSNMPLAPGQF

[6] = target: T3, human α1D‐adrenoceptor (full length) (Homo sapiens, UniProt P25100); assay: Intracellular free calcium mobilization, CHO‐α1D cells; type: cell-based; settings: CHO‐α1D cells; response at 100 µM ligand (no EC50 given)
T3 construct: human α1D‐adrenoceptor (full length) were used; expressed in transfected cells; host or cells: CHO-K1
T3 sequence (P25100 1-572): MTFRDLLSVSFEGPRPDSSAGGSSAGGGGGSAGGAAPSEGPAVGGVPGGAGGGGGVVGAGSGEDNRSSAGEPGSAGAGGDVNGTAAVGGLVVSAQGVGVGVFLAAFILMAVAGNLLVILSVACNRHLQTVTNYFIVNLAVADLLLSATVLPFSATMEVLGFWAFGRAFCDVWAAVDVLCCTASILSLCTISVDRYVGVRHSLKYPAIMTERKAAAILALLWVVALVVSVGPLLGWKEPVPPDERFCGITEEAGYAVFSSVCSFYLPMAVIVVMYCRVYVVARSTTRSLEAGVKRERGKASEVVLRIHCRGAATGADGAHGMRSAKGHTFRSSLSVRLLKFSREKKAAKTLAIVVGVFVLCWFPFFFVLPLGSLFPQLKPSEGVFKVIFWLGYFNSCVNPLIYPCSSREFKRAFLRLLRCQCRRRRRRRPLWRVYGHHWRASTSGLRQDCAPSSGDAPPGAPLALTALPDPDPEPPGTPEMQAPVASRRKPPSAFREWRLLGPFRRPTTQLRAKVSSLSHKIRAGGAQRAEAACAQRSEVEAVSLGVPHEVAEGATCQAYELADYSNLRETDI

[7] = target: T3, human α1D‐adrenoceptor (full length); assay: ERK1/2‐phosphorylation (Surefire Alphascreen), CHO‐α1D cells; type: cell-based; settings: CHO‐α1D cells; response at 100 µM ligand (no EC50 given)
[8] = target: T2, human α1B‐adrenoceptor; assay: ERK1/2‐phosphorylation (Surefire Alphascreen), CHO‐α1B cells; type: cell-based; settings: CHO‐α1B cells; maximal response as % PDBu response; for bi‐phasic responses the initial stimulatory part
[9] = target: T2, human α1B‐adrenoceptor; assay: ^3H‐cAMP accumulation, CHO‐α1B cells; type: cell-based; settings: CHO‐α1B cells; % forskolin maximum response
[10] = system: parental CHO cell line without any transfected receptors; assay: Forskolin‐stimulated cAMP accumulation, parent CHO cells without transfected receptors; type: cell-based, Chinese hamster; settings: CHO cells without transfected receptors; in presence of forskolin
[11] = system: parental CHO cell line without any transfected receptors; assay: ERK1/2‐phosphorylation, parent CHO cells without transfected receptors; type: cell-based, Chinese hamster; settings: CHO cells without transfected receptors; maximal response as % of PDBu (10μM) response; mean ± s.e.m.

Compound	Intracellular calcium release % ionomycin [1] [%]	Log efficacy ratio KD /EC50 [1]	ERK1/2‐phosphorylation % PDBu [2] [%]	cAMP accumulation (in presence of forskolin) Fold increase [3]	cAMP accumulation % forskolin [4]	Intracellular calcium release % ionomycin [5] [%]	Intracellular calcium release % Ionomycin at 100 µM [6] [%]	ERK1/2‐phosphorylation % PDBu at 100 µM [7] [%]	ERK1/2‐phosphorylation % PDBu [8] [%]	Intracellular calcium release % ionomycin ([1]; CHO‐α1A cells, maximal response as % of 10 µM ionomycin) [%]	cAMP accumulation % forskolin [9] [%]	ERK1/2‐phosphorylation % PDBu ([2]; CHO‐α1A cells, % of 10 µM PDBu, ^a bi‐phasic: initial stimulatory part) [%]	cAMP accumulation (in presence of forskolin) Log EC50 [10]	ERK1/2-phosphorylation % PDBu [11]
Bromocryptine	20.0 ± 3.0	−1.42	61.2 ± 10.3	No response	No response									
c1ccc2c(c1)OCC(C1=NCCN1)O2 (centres unmarked) [Idazoxan]					2.6 ± 0.4%	25.7 ± 3.0	5.7 ± 0.7	2.2 ± 1.3	31.3 ± 2.2	25.9 ± 2.1	2.4 ± 0.3	64.9 ± 2.4	No response	No response
NCCc1ccc(O)c(O)c1 [Dopamine]						62.5 ± 2.9			85.8 ± 6.0		53.0 ± 7.5		No response	No response
